Assay results published in publication PMC3734245, “Surface Display and Bioactivity of Bombyx mori Acetylcholinesterase on Pichia pastoris” (PLoS ONE, 2013).

Molecular target: T1, displayed BmAChE (Bombyx mori, UniProt A5A2M5)
T1 construct: signal peptide and hydrophobic C-terminal tail removed; N-terminal FLAG tag; (Gly4Ser)3 linker to S. cerevisiae AGalpha1 anchor at C-terminus; bmace about 1900 bp; primers encode N-terminal RSWANH and C-terminal TGPYSS
Assay: Ellman assay, yeast cell suspension displaying the enzyme
Type: cell-based

T1 sequence (A5A2M5 entry or part of it): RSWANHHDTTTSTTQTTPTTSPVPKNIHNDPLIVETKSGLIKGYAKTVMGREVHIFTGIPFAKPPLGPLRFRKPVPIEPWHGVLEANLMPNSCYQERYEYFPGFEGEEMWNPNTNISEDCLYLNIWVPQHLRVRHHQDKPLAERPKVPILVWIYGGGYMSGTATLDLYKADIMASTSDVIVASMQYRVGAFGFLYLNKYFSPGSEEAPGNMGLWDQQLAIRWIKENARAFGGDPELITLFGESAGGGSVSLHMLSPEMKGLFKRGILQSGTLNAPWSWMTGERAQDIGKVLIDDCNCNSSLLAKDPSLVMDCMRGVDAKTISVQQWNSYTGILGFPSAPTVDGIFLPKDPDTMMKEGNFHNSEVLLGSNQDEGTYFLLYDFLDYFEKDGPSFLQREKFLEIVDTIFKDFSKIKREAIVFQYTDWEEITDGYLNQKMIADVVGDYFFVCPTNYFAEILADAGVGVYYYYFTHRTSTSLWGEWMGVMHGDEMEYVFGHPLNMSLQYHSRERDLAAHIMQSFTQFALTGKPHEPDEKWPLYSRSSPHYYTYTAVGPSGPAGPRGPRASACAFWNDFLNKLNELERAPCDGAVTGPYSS

Structure (SMILES)	IC50 [nM]
CNC(=O)Oc1cccc2c1OC(C)(C)C2 [carbofuran]	1.92
CCCCN(CCCC)SN(C)C(=O)Oc1cccc2c1OC(C)(C)C2 [carbosulfan]	113
COP(=O)(OC)OC=C(Cl)Cl [dichlorphos]	903
CNC(=O)CSP(=S)(OC)OC [dimethoate]	1140
CNC(=O)Oc1ccc2c(c1)[C@]1(C)CCN(C)[C@@H]1N2C [eserine]	41.7
COP(N)(=S)Oc1ccccc1C(=O)OC(C)C (stereo not shown) [isocarbophos]	910
CNC(=O)Oc1ccccc1C(C)C [isoprocarb]	11.1
CCOC(=O)CC(SP(=S)(OC)OC)C(=O)OCC (stereo not shown) [malathion]	1410
COP(N)(=O)SC (stereo not shown) [methamidophos]	1070
CNC(=O)Oc1cc(C)c(SC)c(C)c1 [methiocarb]	65.8
CNC(=O)ON=C(C)SC [methomyl]	64.1
CCOP(=S)(OCC)Oc1ccc([N+](=O)[O-])cc1 [parathion]	1130
COP(=O)(OC)C(O)C(Cl)(Cl)Cl (stereo not shown) [trichlorphon]	240
